Measurements from patent US20240101584A1, “TARGETED DELIVERY OF 1,2,4,5 TETRAOXANE COMPOUNDS AND THEIR USES” (Westlake University, priority 2021, published 2024).
Where two headings read alike, the source gives them in different places.

How the values were obtained:
MDA-MB-231 cells = experiment: MTT viability assay, MDA-MB-231 cells; format: cell-based; conditions: for IC50: Homo sapiens; for fold more potent than FINO2 in eradicating MDA-MB-231 cells: comparator FINO2; for fold more cytotoxic than OZ439 on MDA-MB-231: comparator OZ439 (literature)
Description: (§1) The anticancer activities of the exemplary compounds listed in Example 1 were tested against human cervix Hela cells, mammary breast cancer MDA-MB-231 cells, human hepatocellular HepG2 cells, human colorectal HCT116 cells, mammary ductal T47D cells, non-cancerous NIH3T3 cells, dog's kidney MDCK cells, and mouse brain bEnd.3 cells, respectively.

Hela cells = experiment: MTT viability assay, Hela cells; format: cell-based, human; conditions: Homo sapiens, HeLa, 48 h incubation, mean, n = 3, read-out: IC50 against Hela cells
Description: as §1

T47D cells = experiment: MTT viability assay, T47D cells; format: cell-based; conditions: for IC50: Homo sapiens, T47D
Description: as §1

NIH3T3 cells = experiment: MTT viability assay, non-cancerous NIH3T3 cells; format: cell-based; conditions: Mus musculus, NIH3T3
Description: as §1

HCT116 cells = experiment: MTT viability assay, HCT116 cells; format: cell-based, human; conditions: for IC50: Homo sapiens, HCT-116; for fold more cytotoxic to HCT116 cells than OZ277: comparator OZ277; for fold more cytotoxic than OZ439 on HCT116: comparator OZ439 (literature)
Description: as §1

MDCK cells = experiment: MTT viability assay, MDCK cells; format: cell-based, dog; conditions: Canis lupus familiaris, MDCK, 48 h incubation, mean, n = 3, read-out: IC50 against MDCK cells
Description: as §1

HEYA8 CSCs [1] = experiment: CellTiter-Glo viability, HeyA8 cancer stem cells (spheres); format: cell-based; conditions: for IC50: HEY A8, cancer stem cell spheres, CellTiter-Glo, 48 hrs, n = 3, read-out: IC50 HeyA8sp (HEYA8 CSCs); for cell viability of ovarian cancer cells and cancer stem cells (FIG. 3C, words): both ovarian cancer cells and CSCs
NIH3T3 = experiment: CellTiter-Glo viability, NIH3T3 cells (Table 14); format: cell-based; conditions: Mus musculus, 48 hrs, n = 3
[2] = tested on: HEYA8 CSC xenograft tumors; experiment: Mouse xenograft ovarian tumors (HEYA8 CSC); format: in vivo; conditions: for tolerability of regimens in tested animals / abnormal behavior or weight loss during treatment period: HEYA8 CSC xenograft mice; for abnormal behavior or weight loss during treatment period: entire treatment period
Description: FIG. 7A is a graph showing the tumor volume of xenograft tumors versus time after s.c. injection of DMSO, PTX, compound 37b, or compound 48. Nude mice were injected s.c. with HEYA8 CSC cells (10^6) and randomly allocated to one of the six treatment groups (n=4): (i) DMSO, (ii) Paclitaxel (PTX), 5 mg/kg, (iii) compound 37b, 5 mg/kg, (iv) compound 37b, 10 mg/kg, (v) compound 48, 5 mg/kg, or (vi) compound 48, 10 mg/kg. When control animals (DMSO) began to appear tumor ulceration (25 days), all animals in the experiment were sacrificed and photographed. FIG. 7B are photographs of the tumor from sacrificed animals of different treatment groups after 25 days. FIG. 7C is a graph showing the tumor weight of xenograft tumors versus time after s.c. injection of DMSO, PTX, compound 37b, or compound 48. Data are shown as mean±SEM. * P≤0.05 versus DMSO group.
The cytotoxicity of 1,2,4,5-tetraoxanes 48 and 37b on cancer stem cell (CSC) model of HEY A8 CSCs and mouse xenograft ovarian tumors (FIG. 2) was examined. Nude mice were injected s.c. with HEYA8 CSC cells […] and randomly allocated to one of the six treatment groups (n=4): (i) DMSO, (ii) Paclitaxel (PTX), 5 mg/kg, (iii) compound 37b, 5 mg/kg, (iv) compound 37b, 10 mg/kg, (v) compound 48, 5 mg/kg, and (vi) compound 48, 10 mg/kg. When control animals (DMSO) began to appear tumor ulceration (25 days), all animals in the experiment were sacrificed and photographed. It is known that ovarian CSCs have resistance to Taxol, so Taxol was used as negative control.

[3] = tested on: lipid ROS in MDA-MB-231 cells; experiment: C11-BODIPY lipid ROS detection in MDA-MB-231 cells; format: cell-based; conditions: 48 5 μM, 37b 1 μM, RSL3 0.5 μM; 6 h incubation
Description: FIG. 11 is a bar graph showing the detection of lipid ROS with compound 48 (5 μM), compound 37b (1 μM), or RSL3 (0.5 μM) by BODIPY 581/591 C11 after 6 h incubation in MDA-MB-231 cells. **P≤0.01 versus DMSO group. Data are plotted as the mean±SD, n=3 biologically independent samples. All P values were determined using two-tailed Student's t-test.
Since lipid peroxidation is the evidence about ferroptosis, C11-BODIPY probe is used to validate the lipid ROS generated by tetraoxanes. It is a ratiometric membrane-targeted probe which changes the emission from 590 nm to 510 nm upon the detection of lipid ROS. Here, MDA-MB-231 cells were treated with 48, 37b and RSL3, respectively. The lipid ROS levels were quantified by flow cytometry. Untreated group gave weak signal in FL1 channel (FIG. 11).

HEYA8 CSCs [4] = experiment: Protective effect of Q-VD-OPh, DFX and Fer-1 on HEYA8 CSCs; format: cell-based; conditions: for cell death pathway: HEYA8 cancer cells and CSCs
Description: FIGS. 5A-5B are bar graphs showing the protective effect of Q-VD-OPh, deferasirox (DFX) and ferrostatin-1 (Fer-1) on HeyA8 cancer stem cells (FIG. 5A) and HeyA8 spheres (FIG. 5B) after treatment with compound 48 and compound 37b, respectively, for 24 h. *P≤0.05, **P≤0.01 versus non-pretreated group. Data are plotted as the mean±SD, n=3 biologically independent samples. N.S., no statistically significant change. All P values were determined using two-tailed Student's t-test.

[5] = MDA-MB-231, Table 12b, read-out: IC50 MDA-MB-231
[6] = MTT, 48 h incubation, mean, n = 3, read-out: IC50 against T47D cells
[7] = MTT, 48 h incubation, mean, n = 3, read-out: IC50 against NIH3T3 cells
[8] = Table 12b, read-out: IC50 NIH3T3
[9] = MTT, 48 h incubation, mean, n = 3, read-out: IC50 against HCT116 cells
[10] = Table 12b, read-out: IC50 HCT116

Structure (SMILES) | IC50 (MDA-MB-231 cells; [5]) | fold more potent than FINO2 in eradicating MDA-MB-231 cells (MDA-MB-231 cells) | fold more cytotoxic than OZ439 on MDA-MB-231 (MDA-MB-231 cells) | IC50 (Hela cells) | IC50 (T47D cells; [6]) | IC50 (T47D cells; Table 12b, read-out: IC50 T47D) | selectivity index (IC50 of NIH3T3 divided by IC50 on T47D) (T47D cells; Table 12b, value in bracket) | IC50 (NIH3T3 cells; [7]) | IC50 (NIH3T3 cells; [8]) | IC50 (HCT116 cells; [9]) | IC50 (HCT116 cells; [10]) | fold more cytotoxic to HCT116 cells than OZ277 (HCT116 cells) | fold more cytotoxic than OZ439 on HCT116 (HCT116 cells) | IC50 (MDCK cells) | IC50 (HEYA8 CSCs [1]) | cell viability of ovarian cancer cells and cancer stem cells (FIG. 3C, words) (HEYA8 CSCs [1]) | IC50 (NIH3T3) | tolerability of regimens in tested animals [2] | abnormal behavior or weight loss during treatment period [2] | lipid ROS (BODIPY 581/591 C11, FL1, flow cytometry) [3] | other results
CC(C)(C)C1CCC2(CC1)OOC1(CCC(OC(=O)NCCC[P+](c3ccccc3)(c3ccccc3)c3ccccc3)CC1)OO2.[Br-] (stereo not shown) [Compound 37b, (3-((((12-(tert-butyl)-7,8,15,16-tetraoxadispiro[5.2.59.26]hexadecan-3-yl)oxy)carbonyl)amino)propyl)triphenylphosphonium bromide] | 400 ± 50 nM | ≥ 25 fold | 64 fold | 1600 nM | 620 nM | 600 ± 100 nM | (>7.6) | 4600 nM | 4600 ± 1900 nM | 600 ± 300 nM | 600 ± 300 nM | 113 fold | 106 fold | 9500 nM | 1100 ± 400 nM | could diminish the cell viability | 4600 ± 1900 nM | well-tolerated | no abnormal behavior or weight loss | lipid ROS was generated | selectivity index (IC50 of NIH3T3 divided by IC50 on MDA-MB-231) (MDA-MB-231 cells; Table 12b, value in bracket): (>11.5); fold more cytotoxic to MDA-MB-231 cells than OZ277 (MDA-MB-231 cells; comparator OZ277): 87 fold; selectivity index (IC50 of NIH3T3 divided by IC50 on HCT116) (HCT116 cells; Table 12b, value in bracket): (>7.6); tumor growth compared with vehicle control ([2]; 5 mg/kg and 10 mg/kg, HEYA8 CSC xenograft, 25 days): effective in inhibiting tumor growth; cell death pathway (HEYA8 CSCs [4]): induced ferroptosis instead of apoptosis
CC(C)(C)C1CCC2(CC1)OOC1(CCC(OC(=O)NCCC[N+](C)(Cc3ccccc3)Cc3ccccc3)CC1)OO2.[I-] (stereo not shown) [Compound 48, N,N-dibenzyl-3-((((12-(tert-butyl)-7,8,15,16-tetraoxadispiro[5.2.59.26]hexadecan-3-yl)oxy)carbonyl)amino)-N-methylpropan-1-aminium iodide] | 2400 ± 700 nM | at least 4 fold | 10 fold | 6300 nM | 1700 nM | 1700 ± 300 nM | (>17) | 29000 ± 5700 nM | 29000 ± 5700 nM | 2200 ± 300 nM | 2200 ± 300 nM | 44 fold | 29 fold | 28200 nM | 1200 ± 500 nM | could diminish the cell viability | 29000 ± 5700 nM | well-tolerated | no abnormal behavior or weight loss | lipid ROS was generated | IC50 (MDA-MB-231 cells; MDA-MB-231, 48 h, MTT, 48 h incubation, mean, n = 3, read-out: IC50 against MDA-MB-231 cells): < 4000 nM; IC50 (MDA-MB-231 cells; MDA-MB-231, 48 h, Table 13, experimental data, MTT, 48 hrs, n = 3, read-out: IC50 MDA-MB-231): 2400 ± 700 nM; selectivity index (IC50 of NIH3T3 divided by IC50 on MDA-MB-231) (MDA-MB-231 cells; Table 13, value in bracket): (>12); IC50 (T47D cells; Table 13, experimental data, MTT, 48 hrs, n = 3, read-out: IC50 T47D): 1700 ± 300 nM; selectivity index (IC50 of NIH3T3 divided by IC50 on T47D) (T47D cells; Table 13, value in bracket): (>17); IC50 (NIH3T3 cells; Table 13, experimental data, MTT, 48 hrs, n = 3, read-out: IC50 NIH3T3): 29000 ± 5700 nM; IC50 (HCT116 cells; Table 13, experimental data, MTT, 48 hrs, n = 3, read-out: IC50 HCT116): 2200 ± 300 nM; selectivity index (IC50 of NIH3T3 divided by IC50 on HCT116) (HCT116 cells; Table 13, value in bracket): (>13); fold more cytotoxic to HEYA8 CSCs than non-cancerous cells (HEYA8 CSCs [1]): at least 24 fold; tumor size ([2]; 10 mg/kg, HEYA8 CSC xenograft, 25 days): reduced the tumor size; effect of Fer-1 co-treatment on HEYA8 CSCs (HEYA8 CSCs [4]; 24 h treatment): majority of the CSCs remained unaffected; effect of deferasirox (DFX) on cell death in HEYA8 CSCs (HEYA8 CSCs [4]; 24 h treatment): rescue part of the cell death; cell death pathway (HEYA8 CSCs [4]): ferroptosis
